The test system of assay [1] is phosphorylated STAT1 protein levels in B16-F10 cells. The assay can be described thus: Phospho-STAT1 (Tyr701) HTRF assay in IFN-gamma treated B16-F10 cells. The assay is classed as cell-based. The conditions noted are these: mouse IFN-gamma 100 ng/mL, 1 hour, read-out: pSTAT1 HTRF B16 EC50. The protocol:
B16-F10 cells (ATCC, Manassas, VA, #CRL-6475) were cultured in DMEM growth medium (ThermoFisher Scientific, Waltham, MA, #11995-040) supplemented with 10% heat inactivated FBS (ThermoFisher Scientific, #16140-071) and 1% pen/strep (ThermoFisher Scientific, #15140-122). The cells were seeded into a white opaque 384-well tissue culture treated microplate (PerkinElmer, Waltham, MA, #6007688) at a density of 10,000 cells/well in 20 uL total volume and incubated overnight at 37 C and 5% CO2. 30 nL of compounds dissolved in DMSO were then transferred from a source plate into target wells with the Echo650 acoustic liquid handler (Beckman Coulter, Indianapolis, IN). Negative control wells received 30 nL of DMSO only (0.15% final concentration). Plates were returned to the incubator for 1 hour and then cells treated with either 5 uL of growth medium or 5 uL of growth medium containing 500 ng/mL of recombinant mouse IFN-gamma protein (R&D Systems, Minneapolis, MN, #485-MI/CF, 100 ng/mL final concentration) using the Assist automated pipetting platform (INTEGRA Biosciences, Hudson, NH). Plates were incubated at 37 C for 1 hour and assayed for phosphorylated STAT1 protein levels with the phospho-STAT1 (Tyr701) HTRF kit (Cisbio, Bedford, MA, #63ADK026PEH) according to manufacturer's instructions.
Background: TR-FRET usually uses a lanthanide donor and a delayed reading to cut background.

The target in a further assay is T1, PTPN2 enzyme (Homo sapiens, UniProt P17706).
T1 sequence (P17706 1-415): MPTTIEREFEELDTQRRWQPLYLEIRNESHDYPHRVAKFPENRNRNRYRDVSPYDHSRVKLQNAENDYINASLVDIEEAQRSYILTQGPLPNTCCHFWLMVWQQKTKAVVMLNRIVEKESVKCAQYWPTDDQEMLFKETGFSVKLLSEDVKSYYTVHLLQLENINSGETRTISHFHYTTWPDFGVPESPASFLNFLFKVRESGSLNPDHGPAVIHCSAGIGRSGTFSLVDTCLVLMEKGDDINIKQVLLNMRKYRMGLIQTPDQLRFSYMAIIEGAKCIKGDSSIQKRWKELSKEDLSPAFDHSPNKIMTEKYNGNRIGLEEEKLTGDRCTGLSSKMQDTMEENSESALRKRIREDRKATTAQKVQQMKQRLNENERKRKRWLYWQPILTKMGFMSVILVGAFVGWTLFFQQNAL
The assay can be described thus: PhosphoSens PTPN2 biochemical assay. The conditions noted are these: substrate AQT0264 20 μM, room temperature; read-out: PTPN2 BCHEM IC50. The protocol: A PhosphoSens® kinase assay was performed as described by the vendor (AssayQuant Technologies, Marlborough, MA). Briefly, 1000×solutions of compounds were prepared in DMSO via serial dilution of the 10 mM DMSO stocks using 3-fold intervals in a 384-well reagent plate. 50 nL of the compound dilution series was then added to the corresponding wells of a 384-well assay plate. […] of 1.25×substrate (AQT0264) in 1× assay buffer (50 mM HEPES pH 7.5, 500 μM EGTA, […] MgCl2, 0.01% Brij-35, 1% Glycerol, 1 mM DTT, and 0.2 mg/mL BSA) was transferred to each well of the assay plate to achieve a final substrate concentration of 20 μM. Finally, […] of 5×PTPN2 enzyme stock was added to each well of the assay plate for a final enzyme concentration of […]. Reaction progress curves were collected by sampling fluorescence intensity at the excitation wavelength 360 nm (λex360) and emission wavelength 480 nm (λem480) every 71 seconds for one hour using a Synergy H4 plate reader (BioTek Instruments/Agilent Technologies, Winooski, VT) at room temperature.

For another assay, the system named is B16-F10 cells. The assay can be described thus: Cell proliferation assay (CellTiter-Glo) in IFN-gamma treated B16-F10 cells. The assay is classed as cell-based. The settings on record: 120 h, mouse IFN-gamma 10 ng/mL, read-out: PTPN2 Prolif 5d B16F10 EC50. On the procedure:
B16-F10 cells (ATCC, Manassas, VA, #CRL-6475) were cultured in DMEM growth medium (ThermoFisher Scientific, Waltham, MA, #11995-040) supplemented with 10% heat inactivated FBS (ThermoFisher Scientific, #16140-071) and 1% pen/strep (ThermoFisher Scientific, #15140-122). The cells were seeded into two white opaque 384-well tissue culture treated microplates (PerkinElmer, Waltham, MA, #6007688) at a density of 100 cells/well in 20 uL total volume and incubated overnight at 37 C and 5% CO2. 30 nL of compounds dissolved in DMSO were then transferred from a source plate into target wells with the Echo650 acoustic liquid handler (Beckman Coulter, Indianapolis, IN). Negative control wells received 30 nL of DMSO only (0.15% final concentration). Plates were returned to the incubator for 1 hour and then cells treated with either 5 uL of growth medium or 5 uL of growth medium containing 50 ng/mL of recombinant mouse IFN-gamma protein (R&D Systems, Minneapolis, MN, #485-MI/CF, 10 ng/mL final concentration) using the Assist automated pipetting platform (INTEGRA Biosciences, Hudson, NH). Plates were incubated at 37 C for 4 days and cell proliferation assayed with the CellTiter-Glo reagent (Promega, Madison, WI, #G7573, 25 uL per well). […] Off-target compound mediated cytotoxicity was identified by checking for growth inhibition in the absence of IFNg.
A general note: ATP-based viability assays read luminescence as a measure of living cells.

Some results are limits rather than exact numbers.

Consider `O=C1CN(c2c(O)cc(-c3cccc(Oc4ccccc4)c3)cc2F)S(=O)(=O)N1` [EXAMPLE 14, 5-[2-fluoro-6-hydroxy-4-(3-phenoxyphenyl)phenyl]-1,1-dioxo-1,2,5-thiadiazolidin-3-one], for which the 50% effective concentration (EC50) (in assay [1]; with B16-F10 cells) was not below 15 µM in each case. In addition, the IC50 (commonly the point on the concentration scale where inhibition reaches its midpoint) at PTPN2 enzyme was 2.21 µM.
For the compound `CC(C)Cc1ccc(-c2cc(O)c(N3CC(=O)NS3(=O)=O)c(F)c2)cc1` [EXAMPLE 15, 5-[2-fluoro-6-hydroxy-4-(4-isobutylphenyl)phenyl]-1,1-dioxo-1,2,5-thiadiazolidin-3-one], the concentration giving a half-maximal response (EC50) (in assay [1]; with B16-F10 cells) was not below 15 µM throughout. In addition, on PTPN2 enzyme, the IC50 was 2.48 µM.
As for `O=C1CN(c2c(O)cc(-c3cccc(N4CCOCC4)c3)cc2F)S(=O)(=O)N1` [EXAMPLE 16, 5-[2-fluoro-6-hydroxy-4-(3-morpholinophenyl)phenyl]-1,1-dioxo-1,2,5-thiadiazolidin-3-one], the concentration giving a half-maximal response (EC50) (in assay [1]; with B16-F10 cells) was not below 15 µM each time. The IC50 at PTPN2 enzyme came out at 0.423 µM.
Take `O=C1CN(c2c(O)cc(-c3ccc(C4CC4)cc3)cc2F)S(=O)(=O)N1` [EXAMPLE 17, 5-[4-(4-cyclopropylphenyl)-2-fluoro-6-hydroxy-phenyl]-1,1-dioxo-1,2,5-thiadiazolidin-3-one]: the concentration giving a half-maximal response (EC50) (usually the midpoint of the concentration-response curve) in assay [1] was 7.95 µM; in the assay with B16-F10 cells, not below 15 µM. At PTPN2 enzyme, the IC50 was 1.41 µM.
Take `O=C1CN(c2c(O)cc(-c3cc(-c4ccccc4)cs3)cc2F)S(=O)(=O)N1` [EXAMPLE 18, 5-[2-fluoro-6-hydroxy-4-(4-phenyl-2-thienyl)phenyl]-1,1-dioxo-1,2,5-thiadiazolidin-3-one]: the concentration for a half-maximal effect (EC50) (in assay [1]; with B16-F10 cells) was not below 15 µM throughout. Besides, the IC50 on PTPN2 enzyme amounted to 1.19 µM.
On to `O=C1CN(c2c(O)cc(-c3ccc(CN4CCCC4)cc3)cc2F)S(=O)(=O)N1` [EXAMPLE 19, 5-[2-fluoro-6-hydroxy-4-[4-(pyrrolidin-1-ylmethyl)phenyl]phenyl]-1,1-dioxo-1,2,5-thiadiazolidin-3-one], for which the EC50 (in assay [1]; in the assay on B16-F10 cells) was not below 15 µM in each case. Moreover, the half-inhibitory concentration (IC50) at PTPN2 enzyme is 0.483 µM.
For the compound `O=C1CN(c2c(O)cc(-c3ccnc(-c4ccccc4)c3)cc2F)S(=O)(=O)N1` [EXAMPLE 20, 5-[2-fluoro-6-hydroxy-4-(2-phenyl-4-pyridyl)phenyl]-1,1-dioxo-1,2,5-thiadiazolidin-3-one], the EC50 (in assay [1]; with B16-F10 cells) was not below 15 µM each time. Moreover, the IC50 at PTPN2 enzyme was determined as 0.205 µM.
Take `Cc1cc(OCC2CC2)cc(-c2cc(O)c(N3CC(=O)NS3(=O)=O)c(F)c2)c1` [EXAMPLE 21, 5-[4-[3-(cyclopropylmethoxy)-5-methyl-phenyl]-2-fluoro-6-hydroxy-phenyl]-1,1-dioxo-1,2,5-thiadiazolidin-3-one]: the EC50 (in assay [1]; in the assay with B16-F10 cells) was not below 15 µM in each case. At PTPN2 enzyme, the concentration for half-maximal inhibition (IC50) is 6.96 µM.
As to `CC(C)(O)c1ccc(-c2cc(O)c(N3CC(=O)NS3(=O)=O)c(F)c2)cc1` [EXAMPLE 22, 5-[2-fluoro-6-hydroxy-4-[4-(1-hydroxy-1-methyl-ethyl)phenyl]phenyl]-1,1-dioxo-1,2,5-thiadiazolidin-3-one], the EC50 (in assay [1]; in the assay on B16-F10 cells) was not below 15 µM throughout. Moreover, the 50% inhibitory concentration (IC50) on PTPN2 enzyme amounted to 0.179 µM.
`COc1ccc(-c2cc(O)c(N3CC(=O)NS3(=O)=O)c(F)c2)cn1` [EXAMPLE 23, 5-[2-fluoro-6-hydroxy-4-(6-methoxy-3-pyridyl)phenyl]-1,1-dioxo-1,2,5-thiadiazolidin-3-one]: the concentration for a half-maximal effect (EC50) (in assay [1]; in the assay with B16-F10 cells) was not below 15 µM throughout. Further, the half-maximal inhibitory concentration (IC50) on PTPN2 enzyme stood at 0.142 µM.
`O=C1CN(c2c(O)cc(-c3cnc4ccccc4c3)cc2F)S(=O)(=O)N1` [EXAMPLE 24, 5-[2-fluoro-6-hydroxy-4-(3-quinolyl)phenyl]-1,1-dioxo-1,2,5-thiadiazolidin-3-one]: the EC50 (in assay [1]; in the assay on B16-F10 cells) was not below 15 µM each time. Also, the IC50 at PTPN2 enzyme was determined as 0.19 µM.
For `O=C1CN(c2c(O)cc(-c3ccc(O)nc3)cc2F)S(=O)(=O)N1` [EXAMPLE 26, 5-[2-fluoro-6-hydroxy-4-(6-hydroxy-3-pyridyl)phenyl]-1,1-dioxo-1,2,5-thiadiazolidin-3-one], the values for the EC50 (in assay [1]; in the assay on B16-F10 cells) were 2.18 µM and 3.11 µM, respectively. In addition, the IC50 at PTPN2 enzyme came to 0.01 µM.
For the compound `CN1CCN(c2ccc(-c3cc(O)c(N4CC(=O)NS4(=O)=O)c(F)c3)cn2)CC1` [EXAMPLE 27, 5-[2-fluoro-6-hydroxy-4-[6-(4-methylpiperazin-1-yl)-3-pyridyl]phenyl]-1,1-dioxo-1,2,5-thiadiazolidin-3-one], the EC50 (in assay [1]; with B16-F10 cells) was not below 15 µM throughout. Moreover, the IC50 at PTPN2 enzyme was determined as 0.457 µM.
As to `COc1cncc(-c2cc(O)c(N3CC(=O)NS3(=O)=O)c(F)c2)c1` [EXAMPLE 28, 5-[2-fluoro-6-hydroxy-4-(5-methoxy-3-pyridyl)phenyl]-1,1-dioxo-1,2,5-thiadiazolidin-3-one], the 50% effective concentration (EC50) is not below 15 µM in assay [1] and 7.83 µM with B16-F10 cells. The IC50 on PTPN2 enzyme came out at 0.089 µM.
In the case of `CN(C)c1ccc(-c2cc(O)c(N3CC(=O)NS3(=O)=O)c(F)c2)cn1` [EXAMPLE 29, 5-[4-[6-(dimethylamino)-3-pyridyl]-2-fluoro-6-hydroxy-phenyl]-1,1-dioxo-1,2,5-thiadiazolidin-3-one], the EC50 (in assay [1]; in the assay with B16-F10 cells) was not below 15 µM in each case. Moreover, at PTPN2 enzyme, the IC50 turned out to be 0.09 µM.
Take `O=C1CN(c2c(O)cc(-c3ccc(-c4ccccc4)nc3)cc2F)S(=O)(=O)N1` [EXAMPLE 30, 5-[2-fluoro-6-hydroxy-4-(6-phenyl-3-pyridyl)phenyl]-1,1-dioxo-1,2,5-thiadiazolidin-3-one]: the concentration for a half-maximal effect (EC50) (in assay [1]; in the assay with B16-F10 cells) was not below 15 µM each time. The half-inhibitory concentration (IC50) at PTPN2 enzyme worked out at 0.148 µM.
In the case of `CN1CCN(Cc2cc(O)c(N3CC(=O)NS3(=O)=O)c(F)c2)CC1` [EXAMPLE 31, 5-(2-fluoro-6-hydroxy-4-((4-methylpiperazin-1-yl)methyl)phenyl)-1,2,5-thiadiazolidin-3-one 1,1-dioxide], the values for the 50% effective concentration (EC50) (in assay [1]; with B16-F10 cells) were 2.41 µM and 1.31 µM, respectively. For the same compound, at PTPN2 enzyme, the IC50 was found to be 0.104 µM.
With `CC(C)CCN1CCN(Cc2cc(O)c(N3CC(=O)NS3(=O)=O)c(F)c2)CC1` [EXAMPLE 32, 5-(2-fluoro-6-hydroxy-4-((4-isopentylpiperazin-1-yl)methyl)phenyl)-1,2,5-thiadiazolidin-3-one 1,1-dioxide], the concentration giving a half-maximal response (EC50) (in assay [1]; with B16-F10 cells) was not below 15 µM in each case. For the same compound, the 50% inhibitory concentration (IC50) on PTPN2 enzyme is 0.065 µM.

Source of the values: patent US12162848B2, “Inhibitors of protein tyrosine phosphatase, compositions, and methods of use” (BRISTOL-MYERS SQUIBB COMPANY, priority 2022, dated 2024).
